Here are results for 5 molecules from patent US6831061B2, “Apicidin-derivatives, their synthetic methods and anti-tumor compositions containing them” (priority 2000, dated 2004).

As usually defined, the IC50 is the concentration that inhibits the measured activity by half. The term pIC50 denotes the IC50 on a negative log10 scale, so that one unit is a factor of ten.

Molecules are shown by their SMILES. pIC50: −log10 of the molar value. In brackets after ≈: the same amount, converted by molar mass. Where two headings read alike, the source gives them in different places. Some results are limits rather than exact numbers.

Series [1] deals with CCD-18Co (human normal colon cell line). The experiment in a line: Cell growth inhibition assay (SRB assay), CCD-18Co. The format is cell-based. The settings on record: for Growth inhibition IC50 / IC50: CCD-18Co normal cells, SRB assay; for Growth inhibition IC50: 48 hours; for IC50: Homo sapiens, CCD-18Co, 48 h. How it is done:
(§1) HeLa (human cervical cancer cell line), v-ras-transformed NIH3T3 (mouse fibroblast cell line), Colon 3.1-M26 (mouse colon cancer cell line), MG63 (human osteosarcoma cell line) and MCF-7 (human breast cancer cell line) cells were cultured in DMEM (Dulbecco's modified Eagle's medium, produced by Life Technologies, Inc.). A2058 (human melanoma cell line), AGS (human gastric adenocarcinoma cell line), HBL-100 (human breast cancer cell line), CCD-18Co (human normal colon cell line) and LL86 (human normal lung cell line) cells were cultured in RPMI 1640 (Life Technologies, Inc.) in the presence of 10% FBS and 1% penicillin/streptomycin.
(§2) A cell growth inhibition assay according to sulforhodamine B (SRB) protein dye assay was carried out to examine the effects of apicidin derivative prepared in the Examples on mouse and human cancer cells. The cells were placed in wells and during cultivation were treated with 0.01, 0.1, 0.5, 1, and 2 μg/mL of apicidin, SD9801, SD9802, SD9803, the compound of Example 1, the compound of Example 2 and the compound of Example 3.
(§3) After 48 hours of cultivation, the media were removed from the well plates. The cells were fixed with 1 mL of 10% trichloroacetic acid at 4° C. washed 5 times with distilled water and completely dried in the air. The wells were treated with 0.4% SRB solution and died for 30 minutes at an ambient temperature. Subsequently, the wells were washed 5 times with distilled water and dried for 18 hours. To the respective wells, Tris-HCl (1 mL, 10 mM) was added to dissolve the proteins bonded to SRB. The contents of each well were removed and measured for their absorption at 490 nm.
Background: The SRB assay estimates cell density from bound dye.

Series [2] relates to v-ras-transformed NIH3T3 (mouse fibroblast cell line). The experiment in a line: Cell growth inhibition assay (SRB assay), v-ras-transformed NIH3T3. The format is cell-based. The settings on record: NIH3T3, 48 h. How it is done: as §1, §2, §3
Series [3] concerns AGS (human gastric adenocarcinoma cell line). The experiment in a line: Cell growth inhibition assay (SRB assay), AGS. In kind it is cell-based. The settings on record: 48 h. How it is done:
as §1, §2, §3

In series [4] the test system is A2058 (human melanoma cell line). The experiment in a line: Cell growth inhibition assay (SRB assay), A2058. The format is cell-based. The settings on record: for IC50: Homo sapiens, A2058, 48 h, read-out: Growth inhibition IC50, A2058 cancer cells, SRB assay, 48 hours. How it is done:
as §1, §2, §3

In series [5] the test system is HBL-100 (human breast cancer cell line). The experiment in a line: Cell growth inhibition assay (SRB assay), HBL-100. The format is cell-based. The settings on record: HBL-100, 48 h. How it is done: as §1, §2, §3
For series [6], the system named is Colon 3.1-M26 (mouse colon cancer cell line). The experiment in a line: Cell growth inhibition assay (SRB assay), Colon 3.1-M26. In kind it is cell-based. The conditions noted are these: for IC50: Mus musculus, 48 h. How it is done:
as §1, §2, §3

Series [7] relates to Histone deacetylase purified from HeLa cells. The experiment in a line: In vitro histone deacetylation assay. The format is biochemical, human. The conditions noted are these: [3H]acetyl histone substrate, 37° C., 20 minutes; read-out: Histone deacetylase inhibition IC50. How it is done: Histone deacetylase was purified from HeLa cells. The activity of histone deacetylase was measured according to a method known in the art—See, e.g., Inoue, A. et al., Biochem. Biophys. […] Here, histone with [^3H]acetyl group labeled with radio-active materials was used as a substrate for measurement of activity of histone deacetylase. After incubation at 37° C. for 20 minutes, [^3H]acetic acid released into medium was extracted with ethylacetate and quantified using a liquid radiation detection method.

Series [8] has as its system LL86 (human normal lung cell line). The experiment in a line: Cell growth inhibition assay (SRB assay), LL86. In kind it is cell-based. How it is done: as §1, §2, §3
Series [9] deals with MCF-7 (human breast cancer cell line). The experiment in a line: Cell growth inhibition assay (SRB assay), MCF-7. The format is cell-based. The conditions noted are these: MCF7, 48 h, read-out: Growth inhibition IC50, MCF-7 cancer cells, SRB assay, 48 hours. How it is done: as §1, §2
(§4) After 48 hours of cultivation, the media were removed from the well plates. The cells were fixed with 1 mL of 10% trichloroacetic acid at 4° C. washed 5 times with distilled water and completely dried in the air. […] The contents of each well were removed and measured for their absorption at 490 nm.

Series [10] relates to HeLa (human cervical cancer cell line). The experiment in a line: Cell growth inhibition assay (SRB assay), HeLa. In kind it is cell-based. The conditions noted are these: 48 h, read-out: Growth inhibition IC50, HeLa cancer cells, SRB assay, 48 hours. How it is done:
as §1, §2, §4

The subject of series [11] is MG63 (human osteosarcoma cell line). The experiment in a line: Cell growth inhibition assay (SRB assay), MG63. The conditions noted are these: MG-63, 48 h, read-out: Growth inhibition IC50, MG63 cancer cells, SRB assay, 48 hours. In kind it is cell-based. How it is done: as §1, §2, §4
[12] abbreviates: read-out: Growth inhibition IC50, v-ras-transformed NIH3T3 cancer cells, SRB assay, 48 hours.
Where [13] appears, read: read-out: Growth inhibition IC50, AGS cancer cells, SRB assay, 48 hours.
Where [14] appears, read: read-out: Growth inhibition IC50, HBL-100 cancer cells, SRB assay, 48 hours.
The mark [15] stands for this setting: Colon 3.1-M26 cancer cells, SRB assay, 48 hours.
[16] abbreviates: read-out: Growth inhibition IC50, Colon 3.1-M26 cancer cells, SRB assay, 48 hours.
Setting [17] is: 48 h, read-out: Growth inhibition IC50, LL86 normal cells, SRB assay, 48 hours.
The mark [18] stands for this setting: LL86 normal cells, SRB assay, 48 hours, read-out: Growth inhibition IC50.
Where [19] appears, read: v-ras-transformed NIH3T3 cancer cells, SRB assay, 48 hours, read-out: Growth inhibition IC50.
Where [20] appears, read: AGS cancer cells, SRB assay, 48 hours, read-out: Growth inhibition IC50.
Setting [21] is: HBL-100 cancer cells, SRB assay, 48 hours, read-out: Growth inhibition IC50.
The mark [22] stands for this setting: Colon 3.1-M26 cancer cells, SRB assay, 48 hours, read-out: Growth inhibition IC50.

On to `CCC(CCCCCC1NC(=O)C2CCCCN2C(=O)C(C(C)CC)NC(=O)C(Cc2cn(OC)c3ccccc23)NC1=O)=NNC(N)=O` (stereo not shown) [Example 1, Semicarbazone Derivative of Apicidin], for which the “times higher safety against normal cell growth than the parent compound, apicidin” value in series [1] (normal cell growth) is “about 5 times”. For the same molecule, the 50% inhibitory concentration (IC50) was below 0.2 µg/mL in [2] (setting [12]); below 0.2 µg/mL in series [3] (setting [13]); 0.2 to 2.07 µg/mL (≈ 0.294 to 3.04 µM) in [4]; below 0.2 µg/mL in series [5] (setting [14]); 0.2 to 2.07 µg/mL (≈ 0.294 to 3.04 µM) in series [6] (setting [16]). Besides, the “Growth inhibition IC50” value in [4] (A2058 cancer cells, SRB assay, 48 hours) stood at 0.34 µg/mL; in series [6] (setting [15]) it was 0.20 µg/mL. In series [7], the pIC50 is 9.00.

On to `CCC(CCCCCC1NC(=O)C2CCCCN2C(=O)C(C(C)CC)NC(=O)C(Cc2cn(OC)c3ccccc23)NC1=O)=NNC(C)(C)C` (stereo not shown) [Example 3, tert-butylhydrazone Derivative of Apicidin], for which the “Growth inhibition IC50” value in [1] was 4.27 µg/mL; in series [6] (setting [15]), 0.21 µg/mL. The IC50 in series [1] was 4.27 to 18.2 µg/mL (≈ 6.15 to 26.3 µM); in series [8] (setting [17]) it was 4.27 to 18.2 µg/mL (≈ 6.15 to 26.3 µM); in series [8] (setting [18]), 14.8 µg/mL (≈ 21.3 µM); in series [2] (setting [19]), below 0.2 µg/mL; in series [3] (setting [20]), below 0.2 µg/mL; in series [5] (setting [21]), below 0.2 µg/mL. For the same molecule, in [6] (setting [22]), the IC50 is 0.2 to 2.07 µg/mL (≈ 0.288 to 2.98 µM). Moreover, the negative logarithm of the IC50 (pIC50) in series [7] is 7.60.

For the molecule `CCC(=O)CCCCC[C@@H]1NC(=O)[C@H]2CCCCN2C(=O)[C@H]([C@@H](C)CC)NC(=O)[C@H](Cc2cn(OC)c3ccccc23)NC1=O` [Apicidin, apicidin], the IC50 came out at 2.36 µg/mL (≈ 3.78 µM) in series [1]; 4.25 µg/mL (≈ 6.81 µM) in [8] (setting [17]); 0.18 µg/mL (≈ 0.289 µM) in [2] (setting [12]); 0.13 µg/mL (≈ 0.208 µM) in series [3] (setting [13]); 0.55 µg/mL (≈ 0.882 µM) in series [4]; 0.57 µg/mL (≈ 0.914 µM) in series [5] (setting [14]). The IC50 came out at 1.17 µg/mL (≈ 1.88 µM) in series [9], 0.51 µg/mL (≈ 0.818 µM) in series [10], 1.88 µg/mL (≈ 3.01 µM) in series [11] and 0.17 µg/mL (≈ 0.273 µM) in [6] (setting [16]).

Regarding `CCC(CCCCCC1NC(=O)C2CCCCN2C(=O)C(C(C)CC)NC(=O)C(Cc2cn(OC)c3ccccc23)NC1=O)=NNC(=O)NN` (stereo not shown) [Example 4, Carbohydrazone Derivative of Apicidin], the pIC50 in series [7] is 7.41.

As for `CCC(CCCCCC1NC(=O)C2CCCCN2C(=O)C(C(C)CC)NC(=O)C(Cc2cn(OC)c3ccccc23)NC1=O)=NN` (stereo not shown) [Example 2, Hydrazone Derivative of Apicidin], the “Growth inhibition IC50” value in series [1] was determined as 8.51 µg/mL; in series [6] (setting [15]) it was 0.20 µg/mL. The IC50 is 4.27 to 18.2 µg/mL (≈ 6.69 to 28.6 µM) in [1]; 4.27 to 18.2 µg/mL (≈ 6.69 to 28.6 µM) in series [8] (setting [17]); 16.3 µg/mL (≈ 25.6 µM) in series [8] (setting [18]); below 0.2 µg/mL in series [2] (setting [19]); below 0.2 µg/mL in series [3] (setting [20]); below 0.2 µg/mL in [5] (setting [21]). In addition, in [6] (setting [22]), the half-inhibitory concentration (IC50) was in the range of 0.2 to 2.07 µg/mL (≈ 0.314 to 3.25 µM). Further, in [7], the negative-log IC50 (pIC50) was 8.52.
